From patent US7348427B2, “Antipathogenic benzamide compounds” (Genesoft Pharmaceuticals, Inc., priority 2001, dated 2008)
pKd: −log10 of the molar value. In brackets after ≈: the same amount, converted by molar mass.

Legend:
[1] = molecular target: dsDNA target sequence AATACT (310 bp fragment, Plasmid A); experiment: Quantitative DNase I footprint titration, dsDNA binding; conditions: 310 bp/A, 22° C., pH 7.0, read-out: Dissociation Constant Kd
[2] = system: E. faecalis ATCC 29212; experiment: MIC, NCCLS broth microdilution assay; type: cell-based, Enterococcus faecalis; conditions: C = E. faecalis ATCC 29212
How it was run: (§1)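 Broth microdilution per NCCLS M7-A4 (1997) guidelines; MIC recorded as minimal inhibitory concentration.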

[3] = system: S. pneumoniae ATCC 49619; experiment: MIC, NCCLS broth microdilution assay; type: cell-based, Streptococcus pneumoniae; conditions: H = S. pneumoniae ATCC 49619
How it was run: as §1

[4] = molecular target: dsDNA target sequence AATTAATCAT (352 bp fragment, Plasmid B); experiment: Quantitative DNase I footprint titration, dsDNA binding; conditions: 352 bp/B, 22° C., pH 7.0, read-out: Dissociation Constant Kd
[5] = system: Bacillus cereus (ATCC 11778); experiment: MIC, NCCLS broth microdilution assay; type: cell-based; conditions: A = B. cereus ATCC 11778
How it was run: (§2)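 MICs were determined by broth microdilution following NCCLS documents M7-A4, M11-A4 and M27-T. The antifungal assay followed the method in the Manual of Clinical Microbiology (1995).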

[6] = system: Staphylococcus aureus (ATCC 27660, a methicillin resistant strain (MRSA)); experiment: MIC, NCCLS broth microdilution assay; type: cell-based; conditions: F = S. aureus ATCC 27660
How it was run: as §2

[7] = system: Enterococcus faecium (ATCC 51559, a vancomycin resistant strain (VRE)); experiment: MIC, NCCLS broth microdilution assay; type: cell-based; conditions: D = E. faecium ATCC 51559
How it was run: as §2

[8] = system: Staphylococcus aureus (ATCC 13709, a methicillin sensitive strain (MSSA)); experiment: MIC, NCCLS broth microdilution assay; type: cell-based; conditions: E = S. aureus ATCC 13709
How it was run: as §2

[9] = system: Staphylococcus epidermidis (ATCC 12228); experiment: MIC, NCCLS broth microdilution assay; type: cell-based; conditions: G = S. epidermidis ATCC 12228
How it was run: as §2

[10] = system: Streptococcus pneumoniae (ATCC 51422, a penicillin resistant strain (PRSP)); experiment: MIC, NCCLS broth microdilution assay; type: cell-based; conditions: I = S. pneumoniae ATCC 51422
How it was run: as §2

[11] = system: Candida albicans (ATCC 38247); experiment: Antifungal MIC assay; type: cell-based; conditions: B = C. albicans ATCC 38247
How it was run: as §2

[12] = system: methicillin resistant Staphylococcus aureus ATCC 33591; experiment: Murine neutropenic thigh model; type: in vivo; conditions: neutropenic female CF1 mice, 6 hr after treatment
Method: A S. aureus ATCC 33591 culture was grown to log phase overnight and diluted in phosphate buffered saline (pH 7.2) to an optical density of about 0.1 at 600 nm, giving an approximate concentration of 10^8 cfu/mL. The suspension was diluted 1:100 in phosphate buffered saline (pH 7.2) for a final concentration of 10^6 cfu/mL.
Outbred female CF1 mice (approx. 20 gram body weight) were rendered neutropenic by treatment with cyclophosphamide (200 mg/kg body weight, intraperitoneal injection) at 2 and 4 days prior to inoculation. Groups of 5 mice were inoculated with 0.05 mL of the bacteria (approx. 10^6 cfu/mL) into the anterior thigh. Each group was treated intravenously two hours post infection with vehicle (phosphate buffered saline) or test compound. The mice were sacrificed at either 6 or 24 hrs after treatment and thighs were collected aseptically. Each thigh was weighed, placed into sterile saline, and homogenized. The tissue homogenates were diluted appropriately for plating on agar plates. Colony counts were recorded (cfu/gram) and compared to control groups.
In vivo efficacy was shown by a decrease in colony count (log cfu/gram of tissue) in the compound-treated animals when compared against the colony count in animals given only the vehicle.

[13] = Staphylococcus aureus, read-out: Minimum Inhibitory Concentration (MIC)
[14] = 50 mg/kg intravenously two hours post infection

Q: What does the source list for `Cn1cc(NC(=O)c2cc(NC(=O)c3cc(NC(=O)c4ccc(Cl)cc4F)c[nH]3)cn2C)cc1C(=O)NCCN1CCOCC1` [Compound A-3]?
A: pKd [1]: 8.30; MIC ([2]; Enterococcus faecalis, ATCC29212, read-out: Minimum Inhibitory Concentration (MIC)): ≤ 4 µg/mL; MIC ([3]; Streptococcus pneumoniae, ATCC49619, read-out: Minimum Inhibitory Concentration (MIC)): ≤ 4 µg/mL; pKd [4]: 9.00; MIC ([5]; Bacillus cereus, ATCC11778, read-out: Minimum Inhibitory Concentration (MIC)): ≤ 4 µg/mL; MIC [6, 13]: ≤ 4 µg/mL; MIC ([7]; Enterococcus faecium, read-out: Minimum Inhibitory Concentration (MIC)): ≤ 4 µg/mL; MIC [8, 13]: ≤ 4 µg/mL; MIC ([9]; Staphylococcus epidermidis, ATCC12228, read-out: Minimum Inhibitory Concentration (MIC)): ≤ 4 µg/mL; MIC ([10]; Streptococcus pneumoniae, read-out: Minimum Inhibitory Concentration (MIC)): ≤ 4 µg/mL; MIC ([11]; Candida albicans, ATCC38247, read-out: Minimum Inhibitory Concentration (MIC)): 12 to 32 µg/mL (≈ 18.8 to 50.1 µM)

Q: For `Cn1cc(NC(=O)c2cc(NC(=O)c3cc(NC(=O)c4ccc(F)cc4F)c[nH]3)cn2C)cc1C(=O)NCCN1CCCC1` [Compound A-9], which “Colony Count (log cfu/gram) Compound” value ([12]; 25 mg/kg intravenously two hours post infection) is on record?
A: Its value is 7.11 log cfu/gram.

Q: And the “Colony Count (log cfu/gram) Compound” value [12, 14]?
A: The value was 5.11 log cfu/gram.

Q: What about the “Minimum Inhibitory Concentration (MIC)” value [2] of the same compound?
A: Its value is “+++ (+++ = MIC ≦ 4)”.

Q: What about the “Minimum Inhibitory Concentration (MIC)” value [3] of the same compound?
A: Its value is “+ (+ = 12 ≦ MIC ≦ 32)”.

Q: And the “Minimum Inhibitory Concentration (MIC)” value [5]?
A: The value was “+++ (+++ = MIC ≦ 4)”.

Q: And the “Minimum Inhibitory Concentration (MIC)” value [6]?
A: The value was “+++ (+++ = MIC ≦ 4)”.

Q: And the “Minimum Inhibitory Concentration (MIC)” value [7]?
A: Its value is “+++ (+++ = MIC ≦ 4)”.

Q: And the “Minimum Inhibitory Concentration (MIC)” value [8]?
A: The value was “+++ (+++ = MIC ≦ 4)”.

Q: And the “Minimum Inhibitory Concentration (MIC)” value [9]?
A: The value was “+++ (+++ = MIC ≦ 4)”.

Q: What about the “Minimum Inhibitory Concentration (MIC)” value [10] of the same compound?
A: The value was “+++ (+++ = MIC ≦ 4)”.

Q: And the “Minimum Inhibitory Concentration (MIC)” value [11]?
A: Its value is “+ (+ = 12 ≦ MIC ≦ 32)”.

Q: Which “Colony Count (log cfu/gram) Compound” value [12, 14] does the source give for `Cn1cc(NC(=O)c2cc(NC(=O)c3cc(NC(=O)c4ccc(F)cc4F)cn3C)cn2C)cc1C(=O)NCCN1CCCCC1` [Compound B-6] here?
A: Its value is 6.37 log cfu/gram.

Q: What about the “Minimum Inhibitory Concentration (MIC)” value [2] of the same compound?
A: The value was “+++ (+++ = MIC ≦ 4)”.

Q: And the “Minimum Inhibitory Concentration (MIC)” value [3]?
A: Its value is “+++ (+++ = MIC ≦ 4)”.

Q: And the “Minimum Inhibitory Concentration (MIC)” value [5]?
A: The value was “+++ (+++ = MIC ≦ 4)”.

Q: And the “Minimum Inhibitory Concentration (MIC)” value [6]?
A: The value was “+++ (+++ = MIC ≦ 4)”.

Q: And the “Minimum Inhibitory Concentration (MIC)” value [7]?
A: Its value is “+++ (+++ = MIC ≦ 4)”.

Q: What about the “Minimum Inhibitory Concentration (MIC)” value [8] of the same compound?
A: Its value is “+++ (+++ = MIC ≦ 4)”.

Q: What about the “Minimum Inhibitory Concentration (MIC)” value [9] of the same compound?
A: The value was “+++ (+++ = MIC ≦ 4)”.

Q: And the “Minimum Inhibitory Concentration (MIC)” value [10]?
A: Its value is “+++ (+++ = MIC ≦ 4)”.

Q: And the “Minimum Inhibitory Concentration (MIC)” value [11]?
A: The value was >32 µg/mL.

Q: For `Cn1cc(NC(=O)c2cc(NC(=O)c3cc(NC(=O)c4ccc(F)cc4F)cn3C)cn2C)cc1C(=O)NCCN1CCCCCC1` [Compound B-18], which “Minimum Inhibitory Concentration (MIC)” value [2] is on record?
A: The value was “+++ (+++ = MIC ≦ 4)”.

Q: And the “Minimum Inhibitory Concentration (MIC)” value [3]?
A: The value was “+++ (+++ = MIC ≦ 4)”.

Q: And the pKd [4]?
A: The pKd was 8.70.

Q: What about the “Minimum Inhibitory Concentration (MIC)” value [5] of the same compound?
A: Its value is “+++ (+++ = MIC ≦ 4)”.

Q: What about the “Minimum Inhibitory Concentration (MIC)” value [6] of the same compound?
A: The value was “+++ (+++ = MIC ≦ 4)”.

Q: And the “Minimum Inhibitory Concentration (MIC)” value [7]?
A: Its value is “+++ (+++ = MIC ≦ 4)”.

Q: What about the “Minimum Inhibitory Concentration (MIC)” value [8] of the same compound?
A: Its value is “+++ (+++ = MIC ≦ 4)”.

Q: What about the “Minimum Inhibitory Concentration (MIC)” value [9] of the same compound?
A: The value was “+++ (+++ = MIC ≦ 4)”.

Q: And the “Minimum Inhibitory Concentration (MIC)” value [10]?
A: The value was “+++ (+++ = MIC ≦ 4)”.

Q: What about the “Minimum Inhibitory Concentration (MIC)” value [11] of the same compound?
A: The value was “++ (++ = 4 < MIC < 12)”.

Q: For `Cc1cc(NC(=O)c2cc(NC(=O)c3cc(NC(=O)c4ccc(F)cc4F)cn3C)cn2CCCN(C)C)sn1` [Compound D-3], which “Colony Count (log cfu/gram) Compound” value [12, 14] is on record?
A: Its value is 6.28 log cfu/gram.

Q: And the “Minimum Inhibitory Concentration (MIC)” value [2]?
A: Its value is “+++ (+++ = MIC ≦ 4)”.

Q: What about the “Minimum Inhibitory Concentration (MIC)” value [3] of the same compound?
A: The value was “+++ (+++ = MIC ≦ 4)”.

Q: And the “Minimum Inhibitory Concentration (MIC)” value [5]?
A: Its value is “+++ (+++ = MIC ≦ 4)”.

Q: What about the “Minimum Inhibitory Concentration (MIC)” value [6] of the same compound?
A: Its value is “+++ (+++ = MIC ≦ 4)”.

Q: And the “Minimum Inhibitory Concentration (MIC)” value [7]?
A: The value was “+ (+ = 12 ≦ MIC ≦ 32)”.

Q: What about the “Minimum Inhibitory Concentration (MIC)” value [8] of the same compound?
A: Its value is “+++ (+++ = MIC ≦ 4)”.

Q: What about the “Minimum Inhibitory Concentration (MIC)” value [9] of the same compound?
A: The value was “+++ (+++ = MIC ≦ 4)”.

Q: What about the “Minimum Inhibitory Concentration (MIC)” value [10] of the same compound?
A: Its value is “+++ (+++ = MIC ≦ 4)”.

Q: What about the “Minimum Inhibitory Concentration (MIC)” value [11] of the same compound?
A: Its value is “+++ (+++ = MIC ≦ 4)”.

Q: Which “Colony Count (log cfu/gram) Compound” value [12, 14] does the source give for `Cc1cc(NC(=O)c2cc(NC(=O)c3cc(NC(=O)c4ccc(Cl)cc4F)c[nH]3)cn2CCCN(C)C)sn1` [Compound D-11] here?
A: The value was 6.25 log cfu/gram.

Q: And the “Minimum Inhibitory Concentration (MIC)” value [2]?
A: Its value is “+++ (+++ = MIC ≦ 4)”.

Q: What about the “Minimum Inhibitory Concentration (MIC)” value [3] of the same compound?
A: The value was “+++ (+++ = MIC ≦ 4)”.

Q: What about the “Minimum Inhibitory Concentration (MIC)” value [5] of the same compound?
A: Its value is “+++ (+++ = MIC ≦ 4)”.

Q: And the “Minimum Inhibitory Concentration (MIC)” value [6]?
A: The value was “+++ (+++ = MIC ≦ 4)”.

Q: And the “Minimum Inhibitory Concentration (MIC)” value [7]?
A: Its value is “+++ (+++ = MIC ≦ 4)”.

Q: What about the “Minimum Inhibitory Concentration (MIC)” value [8] of the same compound?
A: Its value is “+++ (+++ = MIC ≦ 4)”.

Q: What about the “Minimum Inhibitory Concentration (MIC)” value [9] of the same compound?
A: The value was “+++ (+++ = MIC ≦ 4)”.

Q: What about the “Minimum Inhibitory Concentration (MIC)” value [10] of the same compound?
A: The value was “+++ (+++ = MIC ≦ 4)”.

Q: And the “Minimum Inhibitory Concentration (MIC)” value [11]?
A: The value was “+++ (+++ = MIC ≦ 4)”.
